The test system of the test is CEM cells HIV-1 protection, formazan growth assay. In words: NCI AIDS Antiviral Assay. The note with it: for IC50: measured here: growth of uninfected CEM cells. In outline:
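Human CEM cells, uninfected and HIV-1-infected, exposed to five drug concentrations; growth measured by soluble formazan assay and scored as percent protection from infection, with protecting compounds retested.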

Where “and” joins values, the source holds several entries; their conditions need not be identical. Equal entries are not always repeated. Calls of active or inactive are those of the source.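 How the source made its calls: active means compounds giving half or more protection of infected cells from virus-caused growth loss, again on retest; inactive means the rest.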

For `O=C1CSC(=O)N1c1ccccc1`, the EC50 is over 186 µM and the IC50 was over 186 µM.
With `CCOC1=C2C(C)(CCC3[C@@]4(C)C=CC(=O)C(C)(C)C4CC(O)[C@@]23C)C(c2ccoc2)C1=O` (some centres not stated), the EC50 was over 79.4 µM and the IC50 is 17.8 µM.
Taken in the same sequence, the figures for `NC(CCCCNc1ccn(C2OC(CO)C(O)C2O)c(=O)n1)C(=O)O` (configuration not stated) were over 100 µM and 5.5 µM.
As to `CN(C)c1ccc(/C=N/Nc2nc3ccccc3c(=O)n2-c2ccccc2)cc1`, the EC50 is over 100 µM and the IC50 is over 100 µM.
For the compound `CN(C)/C=N\c1nncc2[nH]cnc12`, the EC50 is over 200 µM and the 50% inhibitory concentration (IC50) stood at 15.1 µM.
In the same order, the values of `S=c1[nH]nc2scnn12` are over 200 µM and over 200 µM.
In the case of `COCOc1cc(C)c(C(=O)Oc2cc(C)c(C(=O)OC)c(OCOC)c2C)c(OCOC)c1C=O`, the EC50 was over 200 µM and the IC50 turned out to be 26.9 µM.
In the same order, the values of `CCOC(=O)C1CC2OC2CC1C(=O)OCC` (configuration not stated) are over 200 µM and over 200 µM.
In the same order, the values of `N#Cc1c2ccccc2cn1-c1ccc(F)cc1` are over 200 µM and 79.4 µM.
In the same order, the values of `O=C(N/N=C/c1ccc(Br)cc1)N/N=C/c1ccc(Br)cc1` are over 200 µM and 31.6 µM.
For `O=C(CC(=O)c1cccc2ccccc12)C(=O)Nc1nccs1`, the EC50 was over 30.9 µM and the IC50 is over 30.9 µM.
Regarding `Cn1cc(N)cc1C(=O)Nc1cc(C(=O)Nc2ccc3cc(S(=O)(=O)O)cc(S(=O)(=O)O)c3c2)n(C)c1`, the EC50 was 36.3 µM and the concentration for half-maximal inhibition (IC50) turned out to be 316 µM.
With `CC1CN(c2ccc(Cl)cc2)CC(C)(C)OC(=O)O1` (configuration not stated), the EC50 was over 331 µM and the IC50 was 21.4 µM.
As to `CCCCNC(=O)OCC(COc1ccccc1OC)OC(=O)NCCCC` (configuration not stated), the EC50 is over 66.1 µM and the IC50 is over 66.1 µM.
On to `CCOC(=O)c1cc(C2CCN(c3ccccc3)C2=O)c(/C(O)=C/C(C)=O)[nH]1` (configuration not stated), for which the EC50 is over 200 µM and the IC50 is 5.01 µM.
As to `COc1ccc(C2SC(N)=Nc3c2c(C)nn3C(=O)Cc2ccccc2)cc1` (configuration not stated), the concentration giving a half-maximal response (EC50) was 91.2 µM and the half-inhibitory concentration (IC50) came out at 355 µM.
In the same order, the values of `CCOC(=O)C(CCCC(C(=O)OCC)C(=O)OCC)C(=O)OCC` are over 200 µM and over 200 µM.
Taken in the same sequence, the figures for `O=C1CCCCC/C1=C\c1ccc(F)cc1` were over 200 µM and 61.7 µM.
Turning to `CC(=O)N(CCCCNC(=O)C(F)(F)F)CCCNC(=O)C(F)(F)F`, the EC50 is over 200 µM and the IC50 was over 200 µM.
`NC(CSSCC(N)C(=O)NCC(=O)O)C(=O)NCC(=O)O` (configuration not stated): the EC50 was over 708 µM.
For `CC(=O)N/N=C(\N)c1nc2c(n3nc(C)nc13)CCCC2`, the EC50 is over 200 µM and the half-inhibitory concentration (IC50) is 91.2 µM.
Taken in the same sequence, the figures for `CCn1c(SCC(=O)N/N=C2\SCC(=O)N2c2ccc(C)cc2)nc2ccccc2c1=O` were over 200 µM and 66.1 µM.
Turning to `Cc1ccc(S(=O)(=O)ON2C(=O)c3c(N)c(C#N)c(-c4ccccc4)c(-c4ccccc4)c3C2=O)cc1`, the EC50 was over 200 µM and the IC50 was 3.8 µM.
Take `COC1=CC2(OC)CCC1C1=C2C(=O)c2c(O)cccc2C1=O` (configuration not stated): the result was inactive.
On to `O=C(O)CN1C=C(C(=O)c2cc3ccccc3n2S(=O)(=O)c2ccccc2)CCC1`, for which the EC50 is over 200 µM and the IC50 is 89.1 µM.
As to `O=C1c2sccc2-c2cccc3cccc1c23`, the EC50 was over 63.1 µM and the IC50 amounted to 30.9 µM.
With `CCOC(=O)C1N(S(=O)(=O)c2ccc(C)cc2)CCC12c1ccccc1NC2c1ccc(OC)c(OC)c1` (configuration not stated), the outcome was inactive.
As for `CNP(=O)(NC)NC`, the EC50 is over 200 µM and the half-inhibitory concentration (IC50) was over 200 µM.
Consider `COC(=O)Cc1c2n(c3ccccc13)C(=O)N1c3ccccc3C(CC(=O)OC)C21` (configuration not stated), for which the EC50 is over 200 µM and the IC50 was over 200 µM.
For `CC1=N/C(=C\c2ccccc2C)C(=O)O1`, the EC50 is over 1230 µM and the IC50 was over 1230 µM.
Turning to `CC1=C(C(=O)Nc2ccccc2)C(c2ccc(N(C)C)cc2)C(C(=O)Nc2ccccc2)=C(C)N1`, the result was inactive.
Consider `CCC1(CC=C(C)C)Oc2ccccc2-n2cccc2C1=O` (configuration not stated), for which the result was active.
As to `CC(=O)Nc1ccc(SS(=O)(=O)c2ccc(NC(C)=O)cc2)cc1`, the EC50 was over 490 µM and the IC50 turned out to be 204 µM.
Taken in the same sequence, the figures for `N.N.N.N.N.O=C([O-])c1nn[n-]n1.[Cl-].[Co+3]` were over 16.2 µM and over 16.2 µM.
Taken in the same sequence, the figures for `CCCCCCOc1ccc(C(=N)N(CCCC)CCCC)c2ccccc12` were over 200 µM and 3.39 µM.
Regarding `Cn1c(N)c(N=Nc2ccc(S(=O)(=O)Nc3nccs3)cc2)c(=O)n(C)c1=O`, the result was inactive.
Consider `N#Cc1nc(C2CCC(=O)O2)oc1N` (configuration not stated), for which the EC50 was over 200 µM and the IC50 is over 200 µM.
Consider `CCN1CCN=c2c3cc(OC)ccc3n3cnc4ccc1c2c43`, for which the EC50 is over 20 µM and the IC50 was 0.0955 µM.
In the same order, the values of `O=C(O)C1CSCN1C(=O)c1ccccc1SSc1ccccc1C(=O)N1CSCC1C(=O)O` (configuration not stated) are 85.1 µM and over 100 µM.
In the same order, the values of `CN1c2ccccc2[C@@]23CCN4CC=CC5(CCC12CC5)C43` (some centres not stated) are over 178 µM and 7.41 µM.
In the same order, the values of `CCCCCC(=O)OC1(C(C)=O)CCC2C3CCC4=CC(=O)CCC4C3CCC21C` (configuration not stated) are over 200 µM and 14.5 µM.
Take `O=C1NC(Cc2ccccc2)C(=O)N2CCCC12` (configuration not stated): the EC50 is over 1020 µM and the 50% inhibitory concentration (IC50) was over 1020 µM.
Turning to `CC1(C)CNC[C@](C)(OCCCO[C@@]2(C)CNCC(C)(C)NC2=O)C(=O)N1`, the EC50 is over 200 µM and the IC50 is over 200 µM.
`S=c1sc2c(s1)SCCCCSCCCCSc1sc(=S)sc1SCCCCSCCCCS2`: the EC50 is over 200 µM and the IC50 was over 200 µM.
As to `CC1/C=C/[C@@]2(C)CCC(C(C)(C)O)C2C(O)C[C@](C)(O)/C=C/C1` (some centres not stated), the result was inactive.
As to `O=C1CCC2(CC1CCS(=O)c1ccccc1)OCCO2` (configuration not stated), the EC50 was over 200 µM and the IC50 was over 200 µM.
For the compound `O=C(NC(=S)NC(=O)c1cc(O)c(O)c(O)c1)c1cc(O)c(O)c(O)c1`, the EC50 was over 200 µM and the IC50 amounted to 4.27 µM.
Taken in the same sequence, the figures for `O=c1[nH]cnc2c1ncn2[C@H]1CO[C@@H](CO)[C@@H]1O` were over 100 µM and over 100 µM.
`CCOC(=O)c1nc2ccc(C(F)(F)F)cc2nc1Oc1ccc(C#N)cc1`: the EC50 was over 200 µM and the IC50 was over 200 µM.
As to `COC(CN(C(=O)c1ccccc1)C1CCC2(SCCS2)c2[nH]c3ccccc3c21)OC` (configuration not stated), the EC50 was over 200 µM and the IC50 stood at 14.5 µM.
Taken in the same sequence, the figures for `Cc1cn(CC(=O)NCCCO)c(=O)[nH]c1=O` were over 200 µM and over 200 µM.
As for `COCCCNc1nc(N)c(C#N)c(C#N)c1C#N`, the result was inactive.
For `CC(/C=N/N=C(N)N)=N\N=C(N)N`, the EC50 is over 977 µM; the IC50 is 2.75 µM and 0.513 µM.
With `CC(=O)Nc1ccccc1S(=O)(=O)c1ccccc1`, the half-maximal effective concentration (EC50) was 302 µM and the IC50 worked out at 324 µM.
`COCCN(CCOC)C1C2=C(CCCC2)OS(=O)(=O)C1c1ccccc1` (configuration not stated): the EC50 was over 66.1 µM and the half-inhibitory concentration (IC50) is over 66.1 µM.

The term EC50 denotes the concentration at which the effect is half-maximal. Usually IC50 stands for the concentration that gives 50% inhibition. A high value points to lower potency.

Values taken from PubChem BioAssay AID179 (DTP/NCI, 2004).
